# Reference: ChEMBL document CHEMBL2439969, “Replacement of Thr32 and Gln34 in the C-terminal neuropeptide Y fragment 25-36 by cis-cyclobutane and cis-cyclopentane β-amino acids shifts selectivity toward the Y(4) receptor” (J Med Chem, 2013)
# Residues, ends and D or L forms follow the SMILES beside them.
# Experiments:
# [1] = molecular target: T1, Neuropeptide Y receptor type 5 (Homo sapiens, UniProt Q15761); experiment: Displacement of Cy5-pNPY from human Y5 receptor expressed in human HEC-1B cells after 90 to 120 mins by flow cytometry; format: cell-based
# T1 sequence (Q15761 whole entry): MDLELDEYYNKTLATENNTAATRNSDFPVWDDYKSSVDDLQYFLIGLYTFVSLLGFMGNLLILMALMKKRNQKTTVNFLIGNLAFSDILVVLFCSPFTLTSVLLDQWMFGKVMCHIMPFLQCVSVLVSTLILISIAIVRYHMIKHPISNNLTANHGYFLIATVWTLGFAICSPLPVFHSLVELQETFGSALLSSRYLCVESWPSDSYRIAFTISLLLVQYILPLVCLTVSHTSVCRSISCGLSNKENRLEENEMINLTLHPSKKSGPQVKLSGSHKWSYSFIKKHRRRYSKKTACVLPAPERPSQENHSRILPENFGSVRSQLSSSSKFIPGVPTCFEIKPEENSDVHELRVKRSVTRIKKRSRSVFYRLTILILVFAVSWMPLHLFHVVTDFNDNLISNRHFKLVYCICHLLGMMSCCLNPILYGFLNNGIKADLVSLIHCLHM
# [2] = molecular target: T2, Neuropeptide Y receptor type 2 (Homo sapiens, UniProt P49146); experiment: Displacement of Cy5-pNPY from human Y2 receptor expressed in CHO cells after 90 to 120 mins by flow cytometry; format: cell-based
# T2 sequence (P49146 whole entry): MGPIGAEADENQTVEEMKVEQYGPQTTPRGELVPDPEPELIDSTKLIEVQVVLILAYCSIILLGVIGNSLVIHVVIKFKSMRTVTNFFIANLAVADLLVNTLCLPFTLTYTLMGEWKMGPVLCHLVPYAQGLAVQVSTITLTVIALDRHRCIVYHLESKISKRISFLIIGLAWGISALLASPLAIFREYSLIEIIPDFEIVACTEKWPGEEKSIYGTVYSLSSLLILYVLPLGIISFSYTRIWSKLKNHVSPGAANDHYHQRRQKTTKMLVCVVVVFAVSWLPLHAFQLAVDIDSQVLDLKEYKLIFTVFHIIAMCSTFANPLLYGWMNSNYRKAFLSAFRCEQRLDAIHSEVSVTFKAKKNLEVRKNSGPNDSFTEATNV
# [3] = molecular target: T3, Neuropeptide Y receptor type 1 (Homo sapiens, UniProt P25929); experiment: Displacement of Cy5-pNPY from human Y1 receptor expressed in HEL cells after 90 to 120 mins by flow cytometry; format: cell-based
# T3 sequence (P25929 whole entry): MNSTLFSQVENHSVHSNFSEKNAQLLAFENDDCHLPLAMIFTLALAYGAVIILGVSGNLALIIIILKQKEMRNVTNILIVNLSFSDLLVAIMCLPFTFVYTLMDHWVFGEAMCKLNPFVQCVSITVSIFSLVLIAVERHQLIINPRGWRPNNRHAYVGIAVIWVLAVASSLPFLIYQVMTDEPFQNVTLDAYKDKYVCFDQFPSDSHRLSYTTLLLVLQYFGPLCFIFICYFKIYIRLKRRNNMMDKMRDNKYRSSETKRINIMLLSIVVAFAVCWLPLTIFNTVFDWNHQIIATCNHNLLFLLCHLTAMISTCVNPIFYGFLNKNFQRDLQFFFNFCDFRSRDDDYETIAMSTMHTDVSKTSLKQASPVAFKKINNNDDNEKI
# [4] = molecular target: T4, Neuropeptide Y receptor type 4 (Homo sapiens, UniProt P50391); experiment: Agonist activity at human Y4 receptor expressed in sf9 cells assessed as hydrolysis of [gamma-33P]GTP after 2 mins by scintillation counting analysis
# [5] = molecular target: T4, Neuropeptide Y receptor type 4; experiment: Displacement of Cy5-[K4]hPP from human Y4 receptor expressed in CHO cells after 90 to 120 mins by flow cytometry; format: cell-based
# T4 sequence (P50391 whole entry): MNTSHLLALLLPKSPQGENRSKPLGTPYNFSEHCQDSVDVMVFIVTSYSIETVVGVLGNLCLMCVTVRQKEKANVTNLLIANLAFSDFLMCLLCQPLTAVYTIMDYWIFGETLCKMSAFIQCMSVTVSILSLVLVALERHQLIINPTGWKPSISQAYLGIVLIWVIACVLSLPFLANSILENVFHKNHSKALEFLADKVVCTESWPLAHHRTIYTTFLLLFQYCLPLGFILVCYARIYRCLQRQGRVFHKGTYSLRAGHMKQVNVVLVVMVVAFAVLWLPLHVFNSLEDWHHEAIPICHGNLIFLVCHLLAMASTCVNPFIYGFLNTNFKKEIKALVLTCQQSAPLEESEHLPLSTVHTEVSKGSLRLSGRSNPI
Compound,Ki [1] [nM],Ki [2] [nM],Ki [3] [nM],EC50 [4] [nM],Ki [5] [nM]
CC(=O)N[C@@H](Cc1ccc(O)cc1)C(=O)N[C@@H](CCCNC(=N)N)C(=O)N[C@H]1CCC[C@H]1C(=O)N[C@@H](CCCN=C(N)N)C(=O)N[C@@H](Cc1ccc(O)cc1)C(N)=O (HELM PEPTIDE1{[ac].Y.R.[O=C([C@@H]1CCC[C@@H]1N[*:1])[*:2]].R.Y.[am]}$$$$V2.0),> 1000,> 1000,> 1000,94,105
CC[C@H](C)[C@H](NC(=O)[C@H](Cc1ccc(O)cc1)NC(=O)[C@H](Cc1cnc[nH]1)NC(=O)[C@H](CCCNC(=N)N)NC(C)=O)C(=O)N[C@@H](CC(N)=O)C(=O)N[C@@H](CC(C)C)C(=O)N[C@@H](CCCNC(=N)N)C(=O)N[C@H]1CC[C@H]1C(=O)N[C@@H](CCCNC(=N)N)C(=O)N[C@H]1CC[C@H]1C(=O)N[C@@H](CCCNC(=N)N)C(=O)N[C@@H](Cc1ccc(O)cc1)C(N)=O (HELM PEPTIDE1{[ac].R.H.Y.I.N.L.R.[O=C([C@@H]1CC[C@@H]1N[*:1])[*:2]].R.[O=C([C@@H]1CC[C@@H]1N[*:1])[*:2]].R.Y.[am]}$$$$V2.0),> 1000,> 1000,> 1000,66,35
CC(=O)N[C@H](C(=O)N[C@@H](CCCNC(=N)N)C(=O)N[C@H]1CCC[C@H]1C(=O)N[C@@H](CCCNC(=N)N)C(=O)N[C@@H](Cc1ccc(O)cc1)C(N)=O)[C@@H](C)O (HELM PEPTIDE1{[ac].T.R.[O=C([C@@H]1CCC[C@@H]1N[*:1])[*:2]].R.Y.[am]}$$$$V2.0),> 1000,> 1000,> 1000,451,509
CC[C@H](C)[C@H](NC(=O)[C@H](Cc1ccc(O)cc1)NC(=O)[C@H](Cc1cnc[nH]1)NC(=O)[C@H](CCCN=C(N)N)NC(C)=O)C(=O)N[C@@H](CC(N)=O)C(=O)N[C@@H](CC(C)C)C(=O)N[C@H](C(=O)N[C@@H]1C[C@H](C(=O)N[C@@H](CCCN=C(N)N)C(=O)N[C@@H]2C[C@H](C(=O)N[C@@H](CCCNC(=N)N)C(=O)N[C@@H](Cc3ccc(O)cc3)C(N)=O)C2(C)C)C1(C)C)[C@@H](C)CC (HELM PEPTIDE1{[ac].R.H.Y.I.N.L.I.[CC1(C)[C@@H](C(=O)[*:2])C[C@H]1N[*:1]].R.[CC1(C)[C@@H](C(=O)[*:2])C[C@H]1N[*:1]].R.Y.[am]}$$$$V2.0),> 1000,> 1000,> 1000,11,0.53
CC[C@H](C)[C@H](NC(=O)[C@H](Cc1ccc(O)cc1)NC(=O)[C@H](Cc1cnc[nH]1)NC(=O)[C@H](CCCN=C(N)N)NC(C)=O)C(=O)N[C@@H](CC(N)=O)C(=O)N[C@@H](CC(C)C)C(=O)N[C@H](C(=O)N[C@H]1CCC[C@H]1C(=O)N[C@@H](CCCN=C(N)N)C(=O)N[C@H]1CCC[C@H]1C(=O)N[C@@H](CCCN=C(N)N)C(=O)N[C@@H](Cc1ccc(O)cc1)C(N)=O)[C@@H](C)CC (HELM PEPTIDE1{[ac].R.H.Y.I.N.L.I.[O=C([C@@H]1CCC[C@@H]1N[*:1])[*:2]].R.[O=C([C@@H]1CCC[C@@H]1N[*:1])[*:2]].R.Y.[am]}$$$$V2.0),> 500,> 1000,> 1000,48,37
CC[C@H](C)[C@H](NC(=O)[C@H](Cc1ccc(O)cc1)NC(=O)[C@H](CCCNC(=N)N)NC(=O)[C@H](CCCNC(=N)N)NC(C)=O)C(=O)N[C@@H](CC(N)=O)C(=O)N[C@@H](CC(N)=O)C(=O)N[C@@H](CC(C)C)C(=O)N[C@H](C(=O)N[C@@H](CCCNC(=N)N)C(=O)N[C@H]1CC[C@H]1C(=O)N[C@@H](CCCNC(=N)N)C(=O)N[C@@H](Cc1ccc(O)cc1)C(N)=O)[C@@H](C)O (HELM PEPTIDE1{[ac].R.R.Y.I.N.N.L.T.R.[O=C([C@@H]1CC[C@@H]1N[*:1])[*:2]].R.Y.[am]}$$$$V2.0),> 1000,> 1000,> 1000,76,70
Ac-YRLRY-NH2,> 1000,> 1000,> 1000,,
CC[C@H](C)[C@H](NC(=O)[C@H](Cc1ccc(O)cc1)NC(=O)[C@H](Cc1cnc[nH]1)NC(=O)[C@H](CCCNC(=N)N)NC(C)=O)C(=O)N[C@@H](CC(N)=O)C(=O)N[C@@H](CC(C)C)C(=O)N[C@H](C(=O)N[C@H](C(=O)N[C@@H](CCCNC(=N)N)C(=O)N[C@H]1C[C@@H](C(=O)N[C@@H](CCCNC(=N)N)C(=O)N[C@@H](Cc2ccc(O)cc2)C(N)=O)C1(C)C)[C@@H](C)O)[C@@H](C)CC (HELM PEPTIDE1{[ac].R.H.Y.I.N.L.I.T.R.[CC1(C)[C@@H](N[*:1])C[C@H]1C(=O)[*:2]].R.Y.[am]}$$$$V2.0),> 1000,> 1000,> 1000,,> 1000
CCCC[C@H](NC(=O)[C@H](CC(N)=O)NC(=O)[C@@H](NC(=O)[C@H](Cc1ccc(O)cc1)NC(=O)[C@H](CCCNC(=N)N)NC(=O)[C@H](CCCNC(=N)N)NC(C)=O)[C@@H](C)CC)C(=O)N[C@@H](CC(C)C)C(=O)N[C@H](C(=O)N[C@@H](CCCNC(=N)N)C(=O)N[C@H]1CC[C@H]1C(=O)N[C@@H](CCCNC(=N)N)C(=O)N[C@@H](Cc1ccc(O)cc1)C(N)=O)[C@@H](C)O (HELM PEPTIDE1{[ac].R.R.Y.I.N.[Nle].L.T.R.[O=C([C@@H]1CC[C@@H]1N[*:1])[*:2]].R.Y.[am]}$$$$V2.0),> 1000,708,> 1000,284,93
CC[C@H](C)[C@H](NC(=O)[C@H](Cc1ccc(O)cc1)NC(=O)[C@H](Cc1cnc[nH]1)NC(=O)[C@H](CCCNC(=N)N)NC(C)=O)C(=O)N[C@@H](CC(N)=O)C(=O)N[C@@H](CC(C)C)C(=O)N[C@H](C(=O)N[C@H](C(=O)N[C@@H](CCCNC(=N)N)C(=O)N[C@H]1CC[C@H]1C(=O)N[C@@H](CCCNC(=N)N)C(=O)N[C@@H](Cc1ccc(O)cc1)C(N)=O)[C@@H](C)O)[C@@H](C)CC (HELM PEPTIDE1{[ac].R.H.Y.I.N.L.I.T.R.[O=C([C@@H]1CC[C@@H]1N[*:1])[*:2]].R.Y.[am]}$$$$V2.0),> 1000,> 1000,> 1000,122,72
CCCC[C@H](NC(=O)[C@H](CC(N)=O)NC(=O)[C@@H](NC(=O)[C@H](Cc1ccc(O)cc1)NC(=O)[C@H](CCCNC(=N)N)NC(=O)[C@H](CCCNC(=N)N)NC(C)=O)[C@@H](C)CC)C(=O)N[C@@H](CC(C)C)C(=O)N[C@H](C(=O)N[C@@H](CCCNC(=N)N)C(=O)N[C@H]1CCC[C@H]1C(=O)N[C@@H](CCCNC(=N)N)C(=O)N[C@@H](Cc1ccc(O)cc1)C(N)=O)[C@@H](C)O (HELM PEPTIDE1{[ac].R.R.Y.I.N.[Nle].L.T.R.[O=C([C@@H]1CCC[C@@H]1N[*:1])[*:2]].R.Y.[am]}$$$$V2.0),> 500,217,> 1000,51,14
Ac-RHYINLITRLRY-NH2,> 1000,> 1000,> 1000,100,157
Ac-TRLRY-NH2,> 1000,> 1000,> 1000,291,490
